The results in this text go back to patent US20100204219A1, “AROMATIC 1,4-DI-CARBOXYLAMIDES AND THEIR USE” (priority 2006, published 2010).

What all share (type): binding
Common to all, as to details: Example 1

Assay [1] concerns the target T1, βCat-TCF4 (Tcf-4-βCatenin interaction) (Homo sapiens, UniProt P35222).
T1 sequence (P35222 141-664 limits assumed): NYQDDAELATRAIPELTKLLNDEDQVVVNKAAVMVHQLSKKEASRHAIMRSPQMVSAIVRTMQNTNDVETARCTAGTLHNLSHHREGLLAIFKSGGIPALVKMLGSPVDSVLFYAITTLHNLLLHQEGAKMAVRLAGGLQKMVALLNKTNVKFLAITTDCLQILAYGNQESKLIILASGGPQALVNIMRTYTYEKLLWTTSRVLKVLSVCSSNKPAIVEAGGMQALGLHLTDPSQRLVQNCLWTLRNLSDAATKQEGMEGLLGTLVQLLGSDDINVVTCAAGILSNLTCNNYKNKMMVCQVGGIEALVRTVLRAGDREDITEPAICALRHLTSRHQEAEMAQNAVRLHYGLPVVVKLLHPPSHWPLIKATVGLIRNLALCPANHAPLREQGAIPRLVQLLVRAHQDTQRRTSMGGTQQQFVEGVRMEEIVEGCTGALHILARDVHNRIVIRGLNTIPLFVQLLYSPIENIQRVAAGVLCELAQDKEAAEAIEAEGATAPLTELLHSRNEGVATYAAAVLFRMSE
As to the kind of experiment: ELISA based protein-protein interaction assay, βCat-TCF4. From the text: (§1) cDNAs including the binding domains of Lgs and beta-Catenin were fused down-stream of glutathione-S-transferase (GST) cDNA in pGEX-4T inducible bacterial expression vector (Pharmacia). Similar recombinant DNA constructs were generated in the pET-32a(+) vector (Novagen) for expression of fusion protein containing the Thioredoxine-6His tag at their N-terminus. Fusion proteins were produced in BL21 bacteria (e.g. Stratagene) following manufacturer's recommendation.
(§2) To isolate the produced fusions protein, bacteria were ground in aluminum oxide (Sigma, A2039) and the resulting powder extracted in lysis buffer (140 mM NaCl, 10 mM Na2HPO4, 1.8 mM KH2PO4, 2.7 mM KCl, 1 mM EDTA, 1% Triton-X-100, 1 mM DTT and protease inhibitors) under rotation for 30 minutes. Supernatants were cleared by centrifugation then filtered on a 0.45 μm membrane before protein purification. For GST tagged protein, lysate were processed on glutathione agarose beads following manufacturer's recommendation (Amersham Pharmacia) and purified proteins eluted in 50 mM Tris-Cl, 10 mM reduced glutathione pH8.0. For thioredoxine-6His fusions, tagged proteins were purified from the lysate on a nickel chelating column (e.g. Hitrap chelating, G.E. Healthcare) using an HPLC system (e.g. Akta Prime, G.E. Healthcare) and eluted under increasing concentration of imidazole. The purified proteins solution was dialyzed against PBS before use. The quality of the preparations was checked by SDS-gel electrophoresis by standard methods well known by persons skilled in the art.
(§3) Compound preparation: Compounds can be prepared as 25 mM stock in DMSO and diluted in DMSO to reach final test concentrations of up to 100 μM. Final DMSO concentration in the assay is 5%.
(§4) 100 μl of GST fusion protein (e.g. GST-βCatenin) diluted to the appropriate concentration in phosphate buffer saline are added per well to a 96 well plate with high protein binding capacity (e.g. Nunc Maxisorp) and placed at 4° C. overnight. The following day the liquid in the wells is discarded and 150 μl 3% bovine serum albumin (BSA) in PBS are added to each well and incubated at room temperature for 2 hours under moderate shaking. This solution is then discarded and each well washed twice with 200 μl PBS. After carefully discarding the second wash, a mixture of 5 μl compound dilution and 95 μl 6His fusion protein (e.g. 6His-Bcl9) diluted to the appropriate concentration in PBS is added to each well. The plate is then incubated for 1 hour at room temperature under moderate shaking. This protein solution is then discarded and the wells washed 3 times with 200 μl 0.1% Tween-20 solution in PBS. After carefully discarding the final wash, 100 μl of anti 6His antibody conjugated to the horse-radish peroxidase (e.g. Roche antibody 11965085001) at the appropriate dilution in 1% BSA in PBS is added to the wells and the plate incubated for 1 hour at room temperature under moderate shaking. This solution is then discarded and the wells washed 3 times with 200 μl 0.1% Tween-20 solution in PBS. After carefully discarding the final wash, 100 μl of HRP substrate […] (TMB) in solution (e.g. Sigma T0440) is added to the wells and the plate incubated up to 30 minutes in the dark at room temperature. The reaction is stopped by addition of 100 μl of 2N HCl to each well and the optical density is measured at 450 nm and 630 nm.
Background: In an ELISA, binding on a coated surface is turned into a signal by an enzyme label.

Assay [2] addresses T2, βCat-ECad (E-Cadherin-βCatenin interaction) (Homo sapiens, UniProt P35222).
T2 sequence (P35222 134-671 limits assumed): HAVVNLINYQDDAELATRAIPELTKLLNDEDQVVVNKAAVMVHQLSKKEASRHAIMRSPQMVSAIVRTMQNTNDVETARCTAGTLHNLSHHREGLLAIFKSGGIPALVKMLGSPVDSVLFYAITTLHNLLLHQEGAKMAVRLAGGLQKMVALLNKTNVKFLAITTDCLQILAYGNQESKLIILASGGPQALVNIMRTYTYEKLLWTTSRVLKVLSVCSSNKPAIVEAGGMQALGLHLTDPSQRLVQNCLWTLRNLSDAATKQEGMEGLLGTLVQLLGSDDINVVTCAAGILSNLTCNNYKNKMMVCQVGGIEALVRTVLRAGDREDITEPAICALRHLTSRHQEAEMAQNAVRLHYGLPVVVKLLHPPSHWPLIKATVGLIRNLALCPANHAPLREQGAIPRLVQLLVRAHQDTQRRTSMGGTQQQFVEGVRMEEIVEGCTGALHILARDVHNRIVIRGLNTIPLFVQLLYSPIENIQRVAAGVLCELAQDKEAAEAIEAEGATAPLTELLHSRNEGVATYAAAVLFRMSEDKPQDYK
Nature of the assay: ELISA based protein-protein interaction assay, βCat-ECad.
From the text: as §1, §2, §3, §4

In assay [3] the target is T3, βCat-BCL9 (beta-Catenin/BCL9-BCL9L interaction) (Homo sapiens, UniProt P35222).
T3 sequence (P35222 1-781): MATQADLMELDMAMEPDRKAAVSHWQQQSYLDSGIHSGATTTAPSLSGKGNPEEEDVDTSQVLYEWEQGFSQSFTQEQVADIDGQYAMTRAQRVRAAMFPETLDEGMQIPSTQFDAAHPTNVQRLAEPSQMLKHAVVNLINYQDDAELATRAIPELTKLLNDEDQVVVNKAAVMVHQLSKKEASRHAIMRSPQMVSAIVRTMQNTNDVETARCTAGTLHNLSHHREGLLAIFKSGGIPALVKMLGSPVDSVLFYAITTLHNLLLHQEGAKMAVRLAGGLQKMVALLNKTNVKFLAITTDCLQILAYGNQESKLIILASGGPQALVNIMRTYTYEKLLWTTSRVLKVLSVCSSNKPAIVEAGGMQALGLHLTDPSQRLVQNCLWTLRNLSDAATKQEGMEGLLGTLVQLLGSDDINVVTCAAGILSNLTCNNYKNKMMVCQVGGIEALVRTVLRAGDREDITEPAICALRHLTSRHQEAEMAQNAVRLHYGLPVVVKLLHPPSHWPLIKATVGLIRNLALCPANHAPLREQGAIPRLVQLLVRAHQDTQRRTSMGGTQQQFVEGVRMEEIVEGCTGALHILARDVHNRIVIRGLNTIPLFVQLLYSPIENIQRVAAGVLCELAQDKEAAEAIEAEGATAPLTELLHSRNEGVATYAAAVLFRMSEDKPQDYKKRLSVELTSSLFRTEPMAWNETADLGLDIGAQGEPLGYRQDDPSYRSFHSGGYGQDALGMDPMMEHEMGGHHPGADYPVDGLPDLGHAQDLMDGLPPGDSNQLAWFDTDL
As to the kind of experiment: ELISA based protein-protein interaction assay, βCat-BCL9.
From the text: as §1, §2, §3, §4

Where only a bound is given, the exact number is not on record here.

For the compound `COC(=O)c1ccc(NC(=O)c2ccc(C(=O)Nc3ccc(C(=O)OC)cc3Cl)nc2)c(Cl)c1` [TGC0011605], the IC50 (commonly the concentration that gives 50% inhibition) in assay [1] was 22 µM; in assay [2], 21 µM; in assay [3], more than 50 µM.
On to `CCCC(=O)Nc1ccc(-c2cnc(-c3ccc(NC(=O)CCC)cc3)nc2)cc1` [TGC0011566], for which the IC50 is more than 100 µM in assay [1], more than 100 µM in assay [2] and 68 µM in assay [3].
Turning to `O=C(NCc1ccc2c(c1)OCO2)c1ccc(C(=O)NCc2ccc3c(c2)OCO3)nc1` [TGC0011430], the IC50 in assay [1], in assay [2] and in assay [3] was more than 50 µM each time.
Consider `Cc1nnc(NC(=O)c2ccc(C(=O)Nc3nnc(C)s3)nc2)s1` [TGC0011344], for which the results for the IC50 in assay [1], in assay [2] and in assay [3] were 119 µM, 41.4 µM and 86 µM, respectively.
The corresponding values for `COc1cccc(C(=O)Nc2ccc(-c3cnc(-c4ccc(NC(=O)c5cccc(OC)c5)cc4)nc3)cc2)c1` [TGC0011528] are more than 50 µM, more than 50 µM and more than 50 µM.
The corresponding values for `COc1cccc(NC(=O)c2ccc(C(=O)Nc3cccc(OC)c3)nc2)c1` [TGC0011280] are 23 µM, 21 µM and more than 100 µM.
The corresponding values for `O=C(Nc1cccnc1)c1ccc(C(=O)Nc2cccnc2)nc1` [TGC0011423] are more than 100 µM, more than 100 µM and 29 µM.
Regarding `O=C(Nc1ccc2oc(=O)ccc2c1)c1ccc(C(=O)Nc2ccc3oc(=O)ccc3c2)cc1` [TGC0012296], the results for the IC50 in assay [1], in assay [2] and in assay [3] were more than 10 µM, more than 10 µM and 3 µM, respectively.
With `COC(=O)c1cc(NC(=O)c2ccc(C(=O)Nc3cc(C(=O)OC)cc(C(=O)OC)c3)nc2)cc(C(=O)OC)c1` [TGC0000160], the IC50 in assay [1] is more than 100 µM; in assay [3], 38 µM.
As to `O=C(NCc1ccco1)c1ccc(C(=O)NCc2ccco2)nc1` [TGC0011428], the half-inhibitory concentration (IC50) in assay [1], in assay [2] and in assay [3] was more than 50 µM throughout.
For `N#Cc1ccc(NC(=O)c2ccc(C(=O)Nc3ccc(C#N)cc3)cc2)cc1` [TGC0012303], the IC50 in assay [1] is more than 10 µM; in assay [2], more than 10 µM; in assay [3] it was 5 µM.
As to `CC(=O)c1ccc(NC(=O)c2ccc(C(=O)Nc3ccc(C(C)=O)cc3)nc2)cc1` [TGC0011285], the IC50 in assay [1] was more than 10 µM; in assay [2] it was more than 10 µM; in assay [3], 6 µM.
In the case of `COC(=O)c1ccc(NC(=O)c2ccc(C(=O)Nc3ccc(C(=O)OC)cc3)nc2)cc1` [TGC0011288], the IC50 in assay [1] was more than 10 µM; in assay [2], more than 10 µM; in assay [3], 2 µM.
Take `COc1ccc(CCNC(=O)c2ccc(C(=O)NCCc3ccc(OC)c(OC)c3)nc2)cc1OC` [TGC0011342]: the IC50 in assay [1], in assay [2] and in assay [3] was more than 50 µM each time.
For the compound `COC(=O)c1ccc(NC(=O)c2cc(OC)c(C(=O)Nc3ccc(C(=O)OC)cc3)cc2OC)cc1` [TGC0012302], the IC50 in assay [1] was more than 100 µM; in assay [2], more than 100 µM; in assay [3] it was 94 µM.
As to `NC(=O)c1ccc(NC(=O)c2ccc(C(=O)Nc3ccc(C(N)=O)cc3)cc2)cc1` [TGC0012293], the IC50 in assay [3] is more than 10 µM.
Consider `COc1cc(NC(=O)c2ccc(C(=O)Nc3ccc(OC)c(OC)c3)nc2)cc(OC)c1` [TGC0012408], for which half-maximal inhibition in assay [3] (IC50) required 7 µM.
Still for that read-out and setting: in the case of `CC(=O)Nc1cccc(NC(=O)c2ccc(C(=O)Nc3cccc(NC(C)=O)c3)nc2)c1` [TGC0011279] it was more than 100 µM; in that of `COc1ccc(CNC(=O)c2ccc(C(=O)NCc3ccc(OC)cc3)nc2)cc1` [TGC0011427], more than 25 µM.
For the compound `O=C(O)c1ccc(NC(=O)c2ccc(C(=O)Nc3ccc(C(=O)O)cc3)cc2)cc1` [TGC0012290], the IC50 in assay [3] is more than 50 µM.
The same measure, in the same setting: in the case of `O=C(Nc1ccc(F)c(Cl)c1)c1ccc(C(=O)Nc2ccc(F)c(Cl)c2)nc1` [TGC0011287] it was more than 100 µM; in that of `COc1ccc(CCNC(=O)c2ccc(-c3ccc(C(=O)NCCc4ccc(OC)c(OC)c4)cn3)nc2)cc1OC` [TGC0012281], 38 µM.
Regarding `CCC(C)NC(=O)c1ccc(C(=O)NC(C)CC)nc1` (stereo not drawn) [TGC0011437], the IC50 in assay [3] was more than 50 µM.
The same measure, in the same setting: the result for `O=C(Nc1ccc(F)c(F)c1)c1ccc(C(=O)Nc2ccc(F)c(F)c2)nc1` [TGC0012289] reads more than 50 µM; that for `O=C(Nc1cc(C(F)(F)F)ccc1Cl)c1ccc(C(=O)Nc2cc(C(F)(F)F)ccc2Cl)nc1` [TGC0011278], more than 100 µM.
